Assay results as given in patent US10858335B2 (Rigel Pharmaceuticals, Inc., priority 2014, dated 2020).

system: GDF8 signaling (p-SMAD-3 (Ser423/425)); assay: AlphaScreen SureFire SMAD3 (p-Ser423/425) assay, GDF8-stimulated cells (GDF pSMAD); format: cell-based; details: Mus musculus, MPC-11, MPC11; GDF8-stimulated; p-SMAD3 AlphaScreen; read-out: GDF pSMAD (MPC11) (inhibition of GDF8 signaling)

| SMILES | IC50 |
| --- | --- |
| Cc1cnc2ccc(-c3cccnc3-c3cc(Cl)c(F)cc3F)cn12 [compound 766, 6-(2-(5-Chloro-2,4-difluorophenyl)pyridin-3-yl)-3-methylimidazo[1,2-a]pyridine] | 105 nM |
| Cc1cnc2ccc(-c3cccnc3-c3cc(Cl)ccc3F)cn12 [compound 767, 6-(2-(5-Chloro-2-fluorophenyl)pyridin-3-yl)-3-methylimidazo[1,2-a]pyridine] | 227 nM |
| Cn1cnc2ccc(-c3cccnc3-c3ccc(F)c(Cl)c3)cc21 [compound 768, 6-(2-(3-Chloro-4-fluorophenyl)pyridin-3-yl)-1-methyl-1H-benzo[d]imidazole] | 327 nM |
| Cn1cnc2ccc(-c3cccnc3-c3cccc(Cl)c3)cc21 [compound 769, 6-(2-(3-Chlorophenyl)pyridin-3-yl)-1-methyl-1H-benzo[d]imidazole] | 153 nM |
| Fc1cc(Cl)cc(-c2ncccc2-c2ccc3ncnn3c2)c1 [compound 770, 6-(2-(3-Chloro-5-fluorophenyl)pyridin-3-yl)-[1,2,4]triazolo[1,5-a]pyridine] | 1310 nM |
| Clc1ccc(Cl)c(-c2ncccc2-c2ccc3ncnn3c2)c1 [compound 771, 6-(2-(2,5-Dichlorophenyl)pyridin-3-yl)-[1,2,4]triazolo[1,5-a]pyridine] | 1110 nM |
| Fc1c(Cl)cccc1-c1ncccc1-c1ccc2ncnn2c1 [compound 772, 6-(2-(3-Chloro-2-fluorophenyl)pyridin-3-yl)-[1,2,4]triazolo[1,5-a]pyridine] | 4950 nM |
| Cc1c(Cl)cccc1-c1ncccc1-c1ccc2ncnn2c1 [compound 773, 6-(2-(3-Chloro-2-methylphenyl)pyridin-3-yl)-[1,2,4]triazolo[1,5-a]pyridine] | 8480 nM |
| Cc1cc(Cl)cc(-c2ncccc2-c2ccc3ncnn3c2)c1 [compound 775, 6-(2-(3-Chloro-5-methylphenyl)pyridin-3-yl)-[1,2,4]triazolo[1,5-a]pyridine] | 3960 nM |
| COc1cccc(-c2ncccc2-c2ccc3ncnn3c2)c1 [compound 779, 6-(2-(3-Methoxyphenyl)pyridin-3-yl)-[1,2,4]triazolo[1,5-a]pyridine] | 761 nM |
| FC(F)(F)Oc1cccc(-c2ncccc2-c2ccc3ncnn3c2)c1 [compound 780, 6-(2-(3-(Trifluoromethoxy)phenyl)pyridin-3-yl)-[1,2,4]triazolo[1,5-a]pyridine] | 730 nM |
| c1ccc(-c2ncccc2-c2ccc3ncnn3c2)cc1 [compound 781, 6-(2-Phenylpyridin-3-yl)-[1,2,4]triazolo[1,5-a]pyridine] | 5860 nM |
| Fc1ccc(-c2ncccc2-c2ccc3nc[nH]c3c2)cc1Cl [compound 782, 6-(2-(3-Chloro-4-fluorophenyl)pyridin-3-yl)-1H-benzo[d]imidazole] | 332 nM |
| Clc1cccc(-c2ncccc2-c2ccc3nc[nH]c3c2)c1 [compound 783] | 231 nM |
| Cc1cc(-c2ncccc2-c2ccc3ncc(C(=O)N[C@@H]4CN5CCC4CC5)n3c2)ccc1F [compound 790, (S)-6-(2-(4-Fluoro-3-methylphenyl)pyridin-3-yl)-N-(quinuclidin-3-yl)imidazo[1,2-a]pyridine-3-carboxamide] | 4990 nM |
| Cc1cc(-c2ncccc2-c2ccc3ncc(C(=O)N[C@H]4CN5CCC4CC5)n3c2)ccc1F [compound 791, (R)-6-(2-(4-Fluoro-3-methylphenyl)pyridin-3-yl)-N-(quinuclidin-3-yl)imidazo[1,2-a]pyridine-3-carboxamide] | 5370 nM |
| Cc1cc(-c2ncccc2-c2ccn3ncc(C(=O)N[C@@H]4CN5CCC4CC5)c3c2)ccc1F [compound 792, (S)-5-(2-(4-Fluoro-3-methylphenyl)pyridin-3-yl)-N-(quinuclidin-3-yl)pyrazolo[1,5-a]pyridine-3-carboxamide] | 2430 nM |
| Cc1cc(-c2ncccc2-c2ccn3ncc(C(=O)N[C@H]4CN5CCC4CC5)c3c2)ccc1F [compound 793, (R)-5-(2-(4-Fluoro-3-methylphenyl)pyridin-3-yl)-N-(quinuclidin-3-yl)pyrazolo[1,5-a]pyridine-3-carboxamide] | 2080 nM |

The remaining lines, values ahead:

| IC50 | SMILES |
| --- | --- |
| 125 nM | Cn1cnc2ccc(-c3cccnc3-c3cc(Cl)c(F)cc3F)cc21 [compound 784, 6-(2-(5-Chloro-2,4-difluorophenyl)pyridin-3-yl)-1-methyl-1H-benzo[d]imidazole] |
| 110 nM | Cn1cnc2ccc(-c3cccnc3-c3cc(Cl)ccc3F)cc21 [compound 785, 6-(2-(5-Chloro-2-fluorophenyl)pyridin-3-yl)-1-methyl-1H-benzo[d]imidazole] |
| 340 nM | Cc1cc(-c2ncccc2-c2ccc3c(N)n[nH]c3c2)ccc1F [compound 786, 6-(2-(4-Fluoro-3-methylphenyl)pyridin-3-yl)-1H-indazol-3-amine] |
| 4040 nM | Cc1cc(-c2ncccc2-c2ccc3[nH]nc(N)c3c2)ccc1F [compound 788, 5-(2-(4-Fluoro-3-methylphenyl)pyridin-3-yl)-1H-indazol-3-amine] |
| 1800 nM | Cc1cc(-c2ncccc2-c2ccc3c(N)noc3c2)ccc1F [compound 794, 6-(2-(4-Fluoro-3-methylphenyl)pyridin-3-yl)benzo[d]isoxazol-3-amine] |
| 8100 nM | Cc1cc(-c2ncccc2-c2ccc3onc(N)c3c2)ccc1F [compound 795, 5-(2-(4-Fluoro-3-methylphenyl)pyridin-3-yl)benzo[d]isoxazol-3-amine] |
| 14000 nM | Nc1noc2ccc(-c3cccnc3-c3ccc(F)c(Cl)c3)cc12 [compound 796, 5-(2-(3-Chloro-4-fluorophenyl)pyridin-3-yl)benzo[d]isoxazol-3-amine] |
| 3810 nM | Nc1noc2cc(-c3cccnc3-c3ccc(F)c(Cl)c3)ccc12 [compound 797, 6-(2-(3-Chloro-4-fluorophenyl)pyridin-3-yl)benzo[d]isoxazol-3-amine] |
| 2620 nM | Nc1noc2cc(-c3cccnc3-c3cccc(Cl)c3)ccc12 [compound 798, 6-(2-(3-Chlorophenyl)pyridin-3-yl)benzo[d]isoxazol-3-amine] |
| 14600 nM | Nc1noc2ccc(-c3cccnc3-c3cccc(Cl)c3)cc12 [compound 799, 5-(2-(3-Chlorophenyl)pyridin-3-yl)benzo[d]isoxazol-3-amine] |
| 879 nM | Nc1n[nH]c2cc(-c3cccnc3-c3ccc(F)c(Cl)c3)ccc12 [compound 800, 6-(2-(3-Chloro-4-fluorophenyl)pyridin-3-yl)-1H-indazol-3-amine] |
| 5830 nM | Cc1cc(-c2ncccc2-c2ccc3ncc(C(=O)NCC45CCCN4CCC5)n3c2)ccc1F [compound 802, 6-(2-(4-Fluoro-3-methylphenyl)pyridin-3-yl)-N-((tetrahydro-1H-pyrrolizin-7a(5H)-yl)methyl)imidazo[1,2-a]pyridine-3-carboxamide] |
| 2260 nM | Cc1cc(-c2ncccc2-c2ccc3ncc(C(=O)NCCC45CCCN4CCC5)n3c2)ccc1F [compound 803, 6-(2-(4-Fluoro-3-methylphenyl)pyridin-3-yl)-N-(2-(tetrahydro-1H-pyrrolizin-7a(5H)-yl)ethyl)imidazo[1,2-a]pyridine-3-carboxamide] |
| 10100 nM | Cc1cc(-c2ncccc2-c2ccn3ncc(C(=O)NCC45CCCN4CCC5)c3c2)ccc1F [compound 804, 5-(2-(4-Fluoro-3-methylphenyl)pyridin-3-yl)-N-((tetrahydro-1H-pyrrolizin-7a(5H)-yl)methyl)pyrazolo[1,5-a]pyridine-3-carboxamide] |
